Legend:
[1] = system: GP2 (DNA, aptamer) GGAGGCTCTCGGGACGACGGTGTGGCCCGTGGTGTCACTAATGAAGGGATTCATTTCAGTCGTCCCGATGCTGCAATCGTAA; experiment: structure-switching fluorescence titration; settings: 500 mM NaCl, 10 mM MgCl2, 5 mM KCl; 20 mM HEPES pH 7.4, room temperature; dabcyl-cDNA displaced; ligand stocks up to 200 mM
[2] = system: GP1 (DNA, aptamer) GGAGGCTCTCGGGACGACGGGAGCATCATTCTGAGTGTTATGTGGATTGATACGTCTGGTCGTCCCGATGCTGCAATCGTAA; experiment: structure-switching fluorescence titration; settings: 500 mM NaCl, 10 mM MgCl2, 5 mM KCl; 20 mM HEPES pH 7.4, room temperature; dabcyl-cDNA displaced; ligand stocks up to 200 mM
[3] = system: GP1 (DNA, aptamer) GGAGGCTCTCGGGACGACGGGAGCATCATTCTGAGTGTTATGTGGATTGATACGTCTGGTCGTCCCGATGCTGCAATCGTAA; experiment: structure-switching fluorescence titration, Kd = Kd,eff1/Kd,eff2; settings: 500 mM NaCl, 10 mM MgCl2, 5 mM KCl; 20 mM HEPES pH 7.4, ~23 °C; dabcyl-cDNA displaced (sequence not in text); 50 nM each strand
[4] = system: GP2 (DNA, aptamer) GGAGGCTCTCGGGACGACGGTGTGGCCCGTGGTGTCACTAATGAAGGGATTCATTTCAGTCGTCCCGATGCTGCAATCGTAA; experiment: as above; settings: 500 mM NaCl, 10 mM MgCl2, 5 mM KCl; 20 mM HEPES pH 7.4, ~23 °C; dabcyl-cDNA displaced (sequence not in text); 50 nM each strand

SMILES: COC(=O)C1=CO[C@@H](O)[C@@H]2C(CO)=CC[C@H]12
- binding [1]: no
- binding [2]: no

SMILES: COC(=O)C1=CO[C@@H](O[C@@H]2O[C@H](CO)[C@@H](O)[C@H](O)[C@H]2O)[C@@H]2C(CO)=CC[C@H]12
- Kd [3]: ~ 6.1 μM
- Kd [4]: ~ 2.0 μM

SMILES: OC[C@H]1OC(O)[C@H](O)[C@@H](O)[C@@H]1O (stereo partly drawn)
- binding [1]: no
- binding [2]: no
